Results published in publication PMC5833296 (Journal of medicinal chemistry, 2018).
Read-outs that look alike come from different tables or passages of the source. Marks after values point to notes of the source that are not given here.

Experiments:
[1] = system: BoNT/A; settings: mouse, in vivo; cited from earlier work
[2] = target: BoNT/A holotoxin (Clostridium botulinum, UniProt P0DPI1); experiment: cell-based
[3] = target: BoNT/A holotoxin (Clostridium botulinum, UniProt P0DPI0)
[4] = system: BoNT/A holotoxin
[5] = system: healthy mice; settings: mouse, in vivo; for Mice alive/Total mice: po, 160 mg/kg
[6] = target: HSA (Homo sapiens, UniProt P02768); settings: pH 7.34
HSA, sequence (P02768 25-609): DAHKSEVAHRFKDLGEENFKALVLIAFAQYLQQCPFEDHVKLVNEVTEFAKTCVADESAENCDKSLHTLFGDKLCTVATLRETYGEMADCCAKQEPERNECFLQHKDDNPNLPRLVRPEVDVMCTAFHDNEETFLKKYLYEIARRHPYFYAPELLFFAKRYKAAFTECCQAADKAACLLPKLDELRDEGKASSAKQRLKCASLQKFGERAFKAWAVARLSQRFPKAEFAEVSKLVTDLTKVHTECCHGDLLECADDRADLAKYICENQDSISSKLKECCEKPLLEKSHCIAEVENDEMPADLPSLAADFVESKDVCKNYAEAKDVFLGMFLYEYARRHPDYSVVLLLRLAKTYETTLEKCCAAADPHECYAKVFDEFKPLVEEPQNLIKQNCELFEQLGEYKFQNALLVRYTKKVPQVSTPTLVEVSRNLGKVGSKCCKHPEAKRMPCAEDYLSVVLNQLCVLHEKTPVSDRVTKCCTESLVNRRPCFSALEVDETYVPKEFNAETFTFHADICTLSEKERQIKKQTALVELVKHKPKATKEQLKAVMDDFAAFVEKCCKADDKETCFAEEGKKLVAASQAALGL

[7] = system: AGP; settings: pH 7.34
[8] = in vivo
[9] = system: CYP450 enzymes (CYP3A4, CYP2C19, CYP2D6); experiment: in vitro; settings: human

BoNT/A holotoxin (Clostridium botulinum, UniProt P0DPI1), sequence (P0DPI1 2-448 limits assumed): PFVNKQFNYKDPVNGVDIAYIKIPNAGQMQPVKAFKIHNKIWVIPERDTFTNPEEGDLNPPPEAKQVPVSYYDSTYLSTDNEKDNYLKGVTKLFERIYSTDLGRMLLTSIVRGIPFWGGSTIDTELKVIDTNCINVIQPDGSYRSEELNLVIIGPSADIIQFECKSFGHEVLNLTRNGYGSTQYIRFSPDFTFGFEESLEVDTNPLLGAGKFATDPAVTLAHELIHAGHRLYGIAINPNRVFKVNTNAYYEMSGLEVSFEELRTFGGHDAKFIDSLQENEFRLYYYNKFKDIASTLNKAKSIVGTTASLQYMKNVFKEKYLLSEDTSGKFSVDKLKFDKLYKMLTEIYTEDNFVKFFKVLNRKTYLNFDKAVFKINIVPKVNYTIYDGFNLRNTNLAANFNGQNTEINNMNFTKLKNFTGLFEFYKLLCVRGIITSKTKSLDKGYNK
BoNT/A holotoxin (Clostridium botulinum, UniProt P0DPI0), sequence (P0DPI0 2-1296 limits assumed): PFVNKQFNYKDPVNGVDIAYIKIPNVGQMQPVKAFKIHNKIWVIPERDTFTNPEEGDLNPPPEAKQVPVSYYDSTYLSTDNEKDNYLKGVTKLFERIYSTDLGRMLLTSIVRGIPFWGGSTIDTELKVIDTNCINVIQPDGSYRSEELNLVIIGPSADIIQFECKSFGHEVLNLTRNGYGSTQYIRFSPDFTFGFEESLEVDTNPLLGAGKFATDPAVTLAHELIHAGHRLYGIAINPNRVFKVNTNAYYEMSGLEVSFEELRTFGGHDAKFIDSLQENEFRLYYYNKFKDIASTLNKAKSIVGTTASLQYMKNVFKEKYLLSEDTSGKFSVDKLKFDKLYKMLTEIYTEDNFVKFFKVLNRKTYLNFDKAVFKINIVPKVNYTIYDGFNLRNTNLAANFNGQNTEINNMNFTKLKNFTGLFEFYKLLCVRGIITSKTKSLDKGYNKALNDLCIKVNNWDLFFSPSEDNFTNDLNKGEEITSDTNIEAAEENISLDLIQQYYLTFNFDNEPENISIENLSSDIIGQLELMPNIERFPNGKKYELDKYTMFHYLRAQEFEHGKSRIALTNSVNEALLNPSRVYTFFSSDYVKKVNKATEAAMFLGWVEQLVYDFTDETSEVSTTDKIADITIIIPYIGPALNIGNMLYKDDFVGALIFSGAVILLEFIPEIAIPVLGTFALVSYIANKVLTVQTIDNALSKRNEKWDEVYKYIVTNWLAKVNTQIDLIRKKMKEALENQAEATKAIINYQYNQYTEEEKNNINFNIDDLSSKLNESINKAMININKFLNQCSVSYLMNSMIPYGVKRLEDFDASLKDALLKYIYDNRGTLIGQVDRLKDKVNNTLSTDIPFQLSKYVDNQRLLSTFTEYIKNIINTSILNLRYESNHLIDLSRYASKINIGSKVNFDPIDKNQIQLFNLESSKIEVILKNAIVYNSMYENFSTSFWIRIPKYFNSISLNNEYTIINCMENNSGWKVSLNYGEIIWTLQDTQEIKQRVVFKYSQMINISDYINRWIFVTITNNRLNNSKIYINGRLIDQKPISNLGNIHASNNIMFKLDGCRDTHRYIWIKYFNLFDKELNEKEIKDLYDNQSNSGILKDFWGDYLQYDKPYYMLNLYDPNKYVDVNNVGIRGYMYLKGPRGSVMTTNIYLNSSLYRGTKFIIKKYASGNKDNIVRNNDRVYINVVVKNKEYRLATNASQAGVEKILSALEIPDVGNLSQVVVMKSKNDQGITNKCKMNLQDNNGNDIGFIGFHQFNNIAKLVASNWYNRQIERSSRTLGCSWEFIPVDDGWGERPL

| SMILES | % of full length SNAP-25, mES-MNs pre intoxication ([2]; 10 μM) | % of full length SNAP-25, mES-MNs pre intoxication ([2]; 20 μM) | exp LogD (pH 1) | exp LogD (pH 10) | other results |
| --- | --- | --- | --- | --- | --- |
| O=C(CS)Nc1cc(-c2ccc(F)cc2)n[nH]1 [ABS 252, N-(3-(4-fluorophenyl)-1H pyrazol-5 yl)-2-mercaptoacetamide] |  |  |  |  | survival of BoNT intoxicated mice [1]: effective in extending survival |
| CC(=O)O[C@H]1C[C@H]2[C@@H]([C@H](OC(C)=O)C[C@@H]3C[C@H](NCCCCCCNc4ccnc5cc(Cl)ccc45)CC[C@@]32C)[C@@H]2CC[C@H]([C@H](C)CCCNCCCCCCNc3ccnc4cc(Cl)ccc34)[C@@]12C [Compound 1, reference compound] | 70; 84% | 70; 84% |  |  | IC50 [2]: < 10 µM; % of full length SNAP-25, mES-MNs post intoxication [3]: 36; 20% |
| CC(=O)O[C@H]1C[C@H]2[C@@H]([C@H](OC(C)=O)C[C@@H]3C[C@H](N)CC[C@@]32C)[C@@H]2CC[C@H]([C@H](C)CCCNCCCCNc3ccnc4ccccc34)[C@@]12C [Compound 14] | 28; 67% | 28; 67% | 2.14 (pH=1) |  | IC50 [2]: 10 to 20 µM |
| CC(=O)O[C@H]1C[C@H]2[C@@H]([C@H](OC(C)=O)C[C@@H]3C[C@H](N)CC[C@@]32C)[C@@H]2CC[C@H]([C@H](C)CCCN(C)CCCCNc3ccnc4ccccc34)[C@@]12C [Compound 15] | 70; 69% | 70; 69% | 2.11 (pH=1) |  |  |
| CC(=O)O[C@H]1C[C@H]2[C@@H]([C@H](OC(C)=O)C[C@@H]3C[C@H](N)CC[C@@]32C)[C@@H]2CC[C@H]([C@H](C)CCCNCCCCNc3ccnc4cc(Cl)ccc34)[C@@]12C [Compound 16] |  |  | 2.55 (pH=1); 2.07 (pH=7.3) ^d |  | % of full length SNAP-25, mES-MNs pre intoxication [2]: 72; 88%; toxicity in mES-MNs (GAPDH loading control levels lower) [4]: potential toxicity; host toxicity, single oral dose [5]: non-toxic; Mice alive/Total mice [5]: 5/5; Ksv for HSA [6]: (4.56±0.27)×10^4; Ksv for AGP [7]: (6.99±0.25)×10^5; time Tc > 3μM ([8]; mouse): >45 min; IC50 [9]: 1 to 10 µM |
| CC(=O)O[C@H]1C[C@H]2[C@@H]([C@H](OC(C)=O)C[C@@H]3C[C@H](N)CC[C@@]32C)[C@@H]2CC[C@H]([C@H](C)CCCNCCCC(C)Nc3ccnc4ccccc34)[C@@]12C (stereo partly drawn) [Compound 17] | 67; 69% | 67; 69% | 2.28 (pH=1) |  |  |
| CC(=O)O[C@H]1C[C@H]2[C@@H]([C@H](OC(C)=O)C[C@@H]3C[C@H](N)CC[C@@]32C)[C@@H]2CC[C@H]([C@H](C)CCCN(C)CCCC(C)Nc3ccnc4ccccc34)[C@@]12C (stereo partly drawn) [Compound 18] |  |  | 2.38 (pH=1) |  | % of full length SNAP-25, mES-MNs pre intoxication [2]: 20; 41% |
| CC(=O)O[C@H]1C[C@H]2[C@@H]([C@H](OC(C)=O)C[C@@H]3C[C@H](N)CC[C@@]32C)[C@@H]2CC[C@H]([C@H](C)CCCNC(C)CCCNc3ccnc4ccccc34)[C@@]12C (stereo partly drawn) [Compound 19] | 86; 87% | 86; 87% | 2.21 (pH=1) |  | Mice alive/Total mice [5]: 3/5 |
| C[C@H](CCCNCCCCNc1ccnc2cc(Cl)ccc12)[C@H]1CC[C@H]2[C@@H]3[C@H](O)C[C@@H]4C[C@H](N)CC[C@]4(C)[C@H]3C[C@H](O)[C@]12C [Compound 24] |  |  | 2.97 (pH=1) |  | IC50 [2]: 8 to 16 µM; % of full length SNAP-25, mES-MNs pre intoxication ([2]; 8 μM): 46; 58 ^e %; % of full length SNAP-25, mES-MNs pre intoxication ([2]; 16 μM): 46; 58 ^e %; detection as metabolite in mouse samples after oral 16 [8]: None of these metabolites were detected |
| CC(CCCNc1ccnc2ccccc12)NCc1ccc(-c2csc3ccc(F)cc23)cc1 (stereo not drawn) [Compound 34] |  |  |  | 3.85 (pH=10) | % of full length SNAP-25, mES-MNs pre intoxication [2]: 58; 68%; IC50 [2]: 10 to 20 µM; Mice alive/Total mice [5]: 5/5 |
| CC(CCCNCc1ccc(-c2csc3ccc(C#N)cc23)cc1)Nc1ccnc2ccccc12 (stereo not drawn) [Compound 36] | 34; 53% | 34; 53% |  | 3.67 (pH=10) |  |
| CN(CCCCNc1ccnc2ccccc12)Cc1ccc(-c2csc3ccc(F)cc23)cc1 [Compound 37] | 44; 55% | 44; 55% |  | 3.98 (pH=10) |  |
| CC(CCCN(C)Cc1ccc(-c2csc3ccc(C#N)cc23)cc1)Nc1ccnc2ccccc12 (stereo not drawn) [Compound 38] |  |  |  | 3.42 (pH=10) | % of full length SNAP-25, mES-MNs pre intoxication [2]: 59; 64%; IC50 [2]: 10 to 20 µM |
| N#Cc1ccc(-c2ccc(-c3ccc(CNCCCCCCNc4ccnc5ccccc45)cc3)s2)cc1 [Compound 46] | 22; 48% | 22; 48% | 3.08 (pH=1) |  |  |
| N#Cc1ccc(-c2ccc(-c3cccc(CNCCCCCCNc4ccnc5ccccc45)c3)s2)cc1 [Compound 50] | 46; 71% | 46; 71% | 3.08 (pH=1) |  |  |
| CN(CCCNc1ccnc2cc(Cl)ccc12)CC12CC3CC(CC(C3)C1)C2 [Compound 57] | 51; 56% | 51; 56% |  | 3.24 (pH=10) | Mice alive/Total mice [5]: 4/5 |

| SMILES | % of full length SNAP-25, mES-MNs pre intoxication ([2]; 10 μM) | % of full length SNAP-25, mES-MNs pre intoxication ([2]; 20 μM) | exp LogD (pH 1) | exp LogD (pH 10) | other results |
| --- | --- | --- | --- | --- | --- |
| CC(CCN(C)CC12CC3CC(CC(C3)C1)C2)Nc1ccnc2cc(Cl)ccc12 (stereo not drawn) [Compound 60] | 63; 72% | 63; 72% |  | 3.47 (pH=10) | IC50 [2]: < 10 µM; protection of SNAP-25, pre-exposure dose-response experiment [2]: 90%; Mice alive/Total mice [5]: 3/5 |
| CN(CCCNc1ccnc2ccccc12)CC12CC3CC(CC(C3)C1)C2 [Compound 68] | 30; 31% | 30; 31% |  |  |  |
| CC(CCNc1ccnc2ccccc12)NCCC12CC3CC(CC(C3)C1)C2 (stereo not drawn) [Compound 81] | 23; 24% | 23; 24% |  |  |  |
| CC(CCN(C)CC12CC3CC(CC(C3)C1)C2)Nc1ccnc2ccccc12 (stereo not drawn) [Compound 85] |  |  |  |  | % of full length SNAP-25, mES-MNs pre intoxication [2]: 47; 46% |
| N#Cc1ccc2scc(-c3ccc(CNCCCCNc4ccnc5ccccc45)cc3)c2c1 [Compound 86] | 21; 26% | 21; 26% |  | 3.67 (pH=10) |  |
| N#Cc1ccc2scc(-c3ccc(CNCCCCCCNc4ccnc5ccccc45)cc3)c2c1 [Compound 87] | 36; 43% | 36; 43% |  | 3.85 (pH=10) |  |
| CC(CCCNCc1ccc(-c2csc3ccc(F)cc23)cc1)Nc1ccnc2ccccc12 (stereo not drawn) [Compound 91] |  |  |  | 3.98 (pH=10) | % of full length SNAP-25, mES-MNs pre intoxication [2]: 62; 62% |
| N#Cc1ccc(-c2ccc(-c3ccc(CNCCCCCCCCNc4ccnc5ccccc45)cc3)s2)cc1 [Compound 93] |  |  | 3.42 (pH=1) |  | % of full length SNAP-25, mES-MNs pre intoxication [2]: 31; 70%; Mice alive/Total mice [5]: 5/5 |
| CN(CCCCCCCCNc1ccnc2ccccc12)Cc1ccc(-c2ccc(-c3ccc(C#N)cc3)s2)cc1 [Compound 96] |  |  | 3.33 (pH=1) |  | % of full length SNAP-25, mES-MNs pre intoxication [2]: 54; 60%; IC50 [2]: 5 to 10 µM; Mice alive/Total mice [5]: 5/5 |
| N#Cc1ccc(-c2ccc(-c3ccc(CNCCCCNc4ccnc5ccccc45)cc3)s2)cc1 [Compound 101] | 18; 39% | 18; 39% | 2.93 (pH=1) |  |  |
| CC(CCNc1ccnc2cc(Cl)ccc12)NCC12CC3CC(CC(C3)C1)C2 (stereo not drawn) [Compound 102] | 29; 30% | 29; 30% |  | 3.40 (pH=10) |  |
| CC(CCNCCC12CC3CC(CC(C3)C1)C2)Nc1c(F)cnc2cc(Cl)ccc12 (stereo not drawn) [Compound 103] | 30; 29% | 30; 29% |  | 4.33 (pH=10) |  |
| CC(CCNCC12CC3CC(CC(C3)C1)C2)Nc1c(F)cnc2cc(Cl)ccc12 (stereo not drawn) [Compound 104] | 31; 35% | 31; 35% |  | 3.24 (pH=10) |  |
| CC(CCNCC12CC3CC(CC(C3)C1)C2)Nc1c(F)cnc2ccccc12 (stereo not drawn) [Compound 105] | 24; 23% | 24; 23% |  | 3.09 (pH=10) |  |
| CC(CCNCCC12CC3CC(CC(C3)C1)C2)Nc1c(F)cnc2ccccc12 (stereo not drawn) [Compound 106] | 30; 32% | 30; 32% |  | 4.13 (pH=10) |  |
